Reference: patent publication US20060089412A1, “Pharmaceutical composition for the treatment of non-alcoholic fatty liver disease” (AJINOMOTO CO. INC., priority 2004, published 2006)

Columns and labels:
[1] = Body weight in HFD-induced fatty liver rat model; format: in vivo, Male GK rats; settings: for body weight increase compared with HFD alone: 6 weeks, HFD + drug versus HFD alone; for Body Weight, Pre: before feeding
Excerpt: Male GK rats (9 weeks of age, 6 rats per group) received HFD (containing 30% beef tallow) for 6 weeks.

[2] = test system: choline-deficient diet (CDD) rat model; assay: Choline-deficient diet (CDD) rat model of NASH-like liver change; format: in vivo, Male Wistar rats; settings: CDD mixed with 4% L-alanine for 4 weeks
Excerpt: Male Wistar rats (7 weeks of age, 5 rats per group) received CDD (Dyets Co.) for 4 weeks.
On the other hand, in the group of 5 rats received CDD mixed with 4% L-alanine for 4 weeks, one rat is normalized in liver weight (10.6 g).

[3] = test system: HFD-induced fatty liver rat model; assay: Hepatic triglyceride contents in high-fat diet (HFD)-induced fatty liver rat model; format: in vivo, Male GK rats; settings: diet mixed with 4% L-alanine for 6 weeks; one rat of 6, in the level of SD group
Experimental: It has been supposed that the increase of the amount of fat intake in the last few decades is one of the causes of the recent increase of the number of patients with NASH. Therefore, the effect of L-alanine on the hepatic triglyceride contents in the high-fat diet (hereinafter HFD)-induced fatty liver rat model.
Male GK rats (9 weeks of age, 6 rats per group) received HFD (containing 30% beef tallow) for 6 weeks. Triglyceride contents in the liver tissue was increased to 29.1 to 49.3 mg per gram of liver tissue, compared with those (14.1 to 24.2 mg) in the group fed with standard diet (containing 5% soy-been oil; hereinafter SD).
Pioglitazone is a drug, which acts as an insulin-sensitizer for the patients with diabetes. Recent clinical pilot studies raise the possibility of clinical utility of pioglitazone for NASH.
On the other hand, in the group of 6 rats received CDD mixed with 4% L-alanine for 6 weeks, one rat is reduced in the liver triglyceride contents (19.6 mg) in the level of SD group.

Compound	body weight increase compared with HFD alone [1]	Body Weight, Post (at 6 weeks) ([1]; after 6 weeks of HFD mixed with drug, means ± SD (n = 6)) [g]	Body Weight, Pre ([1]; means ± SD (n = 6)) [g]	liver weight ([2]; one rat of 5 (normalized), CDD alone 14.5 to 20.0 g) [g]	histological fat accumulation in the liver ([2]; the one rat of 5 with normalized liver weight)	liver triglyceride contents [3] [mg]
C[C@H](N)C(=O)O [L-alanine]	not observed	331.8 ± 20.5	219.8 ± 13.0	10.6	not recognized	19.6
CCc1ccc(CCOc2ccc(CC3SC(=O)NC3=O)cc2)nc1 (centres unmarked) [pioglitazone, reference compound]	significantly more increased	–	222.1 ± 9.9	–	–	–
